In general, IC50 refers to the concentration needed to halve the response being measured.

The values below come from US6723753B2, “Substituted n-benzyl-n-phenyl aminoalcohol compounds useful for inhibiting cholesteryl ester transfer protein activity” (Pharmacia Corporation, priority 2002, dated 2004).

In assay [1] the target is T1, CETP (Homo sapiens, UniProt P11597).
T1 sequence (P11597 18-493): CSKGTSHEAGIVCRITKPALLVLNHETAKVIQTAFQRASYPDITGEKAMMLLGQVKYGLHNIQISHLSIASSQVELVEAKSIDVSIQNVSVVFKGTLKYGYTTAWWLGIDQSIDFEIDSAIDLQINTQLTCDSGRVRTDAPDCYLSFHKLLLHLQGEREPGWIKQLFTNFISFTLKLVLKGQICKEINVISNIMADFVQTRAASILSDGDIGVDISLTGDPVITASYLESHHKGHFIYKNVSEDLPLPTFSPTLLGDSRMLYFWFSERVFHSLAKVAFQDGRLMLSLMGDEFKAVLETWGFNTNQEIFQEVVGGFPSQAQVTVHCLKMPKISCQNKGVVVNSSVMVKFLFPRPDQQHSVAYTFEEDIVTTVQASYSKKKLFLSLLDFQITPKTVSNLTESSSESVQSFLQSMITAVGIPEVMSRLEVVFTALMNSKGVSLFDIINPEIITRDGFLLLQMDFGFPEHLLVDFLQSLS
Description: Assay of CETP Inhibition in Human Plasma. It counts as biochemical. On the set-up: Blood was obtained from healthy volunteers, recruited from the personnel of Monsanto Company; from tissue; host or cells: human EDTA plasma pool from healthy volunteers. To be noted: transfer of [3H]CE from HDL to VLDL and LDL. The protocol: Assay of CETP Inhibition in Human Plasma
Blood was obtained from healthy volunteers, recruited from the personnel of Monsanto Company, Saint Louis, Mo. Blood was collected in tubes containing EDTA (EDTA plasma pool). The EDTA human plasma pool, previously stored at −20° C., was thawed at room temperature and centrifuged for 5 minutes to remove any particulate matter. […] Equal volumes (396 μL) of the plasma containing the [^3H]CE-HDL were added by pipette into micro tubes (Titertube®, Bio-Rad laboratories, Hercules, Calif.). Inhibitor compounds, dissolved as 20-50 mM stock solutions in DMSO, were serially diluted in DMSO (or an alternative solvent in some cases, such as dimethylformamide or ethanol). Four μL of each of the serial dilutions of inhibitor compounds or DMSO alone were then added to each of the tubes containing plasma (396 μL). After mixing, triplicate aliquots (100 μL) from each plasma tube were then transferred to wells of 96-well round-bottomed polystyrene microtiter plates (Corning, Corning, N.Y.). Plates were sealed with plastic film and incubated at 37° C. for 4 hours. “Test” samples contained plasma with dilutions of inhibitor compounds. “Control” samples contained plasma with DMSO diluted to the same concentration as the test samples, but without inhibitor. “Blank” samples were prepared as “control” samples, but were left in the micro tubes at 4° C. for the 4 hour incubation and were then added to the microtiter wells at the end of the incubation period. VDL and LDL were precipitated by the addition of 10 μL of precipitating reagent (1% (w/v) dextran sulfate (Dextralip50)/0.5 M magnesium chloride, pH 7.4) to all wells. The wells were mixed on a plate mixer and then incubated at ambient temperature for 10 min. The plates were then centrifuged at 1000× g for 30 min at 10° C. The supernatants (50 μL) from each well were then transferred to Picoplate™ 96 plate wells (Packard, Meriden, Conn.) containing Microscint™-40 (Packard, Meriden, Conn.). The plates were heat-sealed (TopSeal™-P, Packard, Meriden, Conn.) according to the manufacturer's directions and mixed for 30 min. Radioactivity was measured on a microplate scintillation counter (TopCount, Packard, Meriden, Conn.). The maximum percentage transfer in the control wells (% transfer) was determined using the following equation: [formula]
The percentage of transfer relative to the control (% control) was determined in the wells containing inhibitor compounds was determined as follows: [formula]
IC50 values were then calculated from plots of % control versus concentration of inhibitor compound.

Assay [2] concerns the target T1, CETP. Description: Assay of CETP Inhibition using Purified Components (Reconstituted Buffer Assay). The format is biochemical. On the set-up: made in house; host or cells: CHO cells (serum-free conditioned medium). As to conditions: transfer of [3H]CE from HDL to LDL. In outline: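 Transfer of radiolabeled cholesteryl ester from HDL to LDL was run for 2 h at 37 °C in pH 7.4 Tris buffer with 1% BSA, using purified CHO-expressed human CETP. Precipitated LDL radioactivity, measured by scintillation after dextran sulfate/MgCl2 precipitation and filtration, yielded the IC50.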

Setting [3] is: Inhibition of CETP activity in human plasma assay, read-out: IC50.
The mark [4] stands for this setting: Inhibition of CETP activity in reconstituted buffer assay, read-out: IC50.
Where [5] appears, read: IC50, Inhibition of CETP activity in human plasma assay.

Consider `OC(CN(Cc1cccc(OC(F)(F)F)c1)c1cccc(C(F)(F)F)c1)C(F)(F)F` (centres unmarked) [Example 42], for which the values for the IC50 on CETP [1] (setting [3]) and at CETP [2] (setting [4]) were 80 µM and 7 µM, respectively.
The corresponding values for `CSc1ccc(Oc2cccc(N(Cc3cccc(OC(F)(F)C(F)F)c3)CC(O)C(F)(F)F)c2)cc1` (centres unmarked) [Example 267] are 27 µM and 1 µM.
Take `OC(CN(Cc1cccc(OC(F)(F)C(F)F)c1)c1cccc(OCc2cc(C(F)(F)F)cc(C(F)(F)F)c2)c1)C(F)(F)F` (centres unmarked) [Example 377]: the IC50 at CETP [1] (setting [3]) turned out to be 24 µM; at CETP [2] (setting [4]) it was 0.23 µM.
Regarding `OC(CN(Cc1cccc(OC(F)(F)C(F)F)c1)c1cccc(OCc2ccccc2F)c1)C(F)(F)F` (centres unmarked) [Example 390], the IC50 on CETP [1] (setting [3]) is 24 µM; on CETP [2] (setting [4]), 0.34 µM.
For `COc1cccc(Nc2cccc(N(Cc3cccc(OC(F)(F)C(F)F)c3)CC(O)C(F)(F)F)c2)c1` (centres unmarked) [Example 305], in that order: 76 µM and 1.2 µM.
For `OC(CN(Cc1cccc(Br)c1)c1cccc(Oc2ccccc2)c1)C(F)(F)F` (centres unmarked) [Example 595B, 3-[(3-phenoxyphenyl)[[3-bromophenyl]methyl]amino]-1,1,1-trifluoro-2-propanol], in that order: more than 100 µM and 4.5 µM.
The corresponding values for `OC(CN(Cc1cccc(OC(F)(F)C(F)F)c1)c1cccc(NCc2cccc(C(F)(F)F)c2)c1)C(F)(F)F` (centres unmarked) [Example 311] are more than 100 µM and 2.6 µM.
For the compound `OC(CN(Cc1cccc(OC(F)(F)C(F)F)c1)c1cccc(-c2ccc(F)c(F)c2F)c1)C(F)(F)F` (centres unmarked) [Example 560], the IC50 on CETP [1] (setting [3]) stood at 11 µM; on CETP [2] (setting [4]) it was 1 µM.
For `OC(CN(Cc1cccc(Oc2ccccc2)c1)c1cccc(OCc2ccccc2)c1)C(F)(F)F` (centres unmarked) [Example 127], in that order: more than 100 µM and 7 µM.
For `O=[N+]([O-])c1ccccc1Oc1cccc(N(Cc2cccc(OC(F)(F)C(F)F)c2)CC(O)C(F)(F)F)c1` (centres unmarked) [Example 436, 3-[[3-(2-nitrophenoxy)phenyl][[3-(1,1,2,2-tetrafluoroethoxy)phenyl]-methyl]amino]-1,1,1-trifluoro-2-propanol], in that order: 14 µM and 0.42 µM.
Take `OC(CN(Cc1cccc(OC(F)(F)F)c1)c1cccc(-c2ccccc2)c1)C(F)(F)F` (centres unmarked) [Example 66]: the IC50 on CETP [1] (setting [3]) was 120 µM; at CETP [2] (setting [4]) it was 4 µM.
On to `OC(CN(Cc1cccc(OC(F)(F)C(F)F)c1)c1cccc(Nc2cccc(Cl)c2)c1)C(F)(F)F` (centres unmarked) [Example 304], for which the results for the IC50 at CETP [1] (setting [3]) and at CETP [2] (setting [4]) were 76 µM and 1.9 µM, respectively.
For the compound `OC(CN(Cc1cccc(OC(F)(F)C(F)F)c1)c1cccc(Oc2ccc(F)c(Cl)c2)c1)C(F)(F)F` (centres unmarked) [Example 245], the figures for the half-inhibitory concentration (IC50) on CETP [1] (setting [3]) and on CETP [2] (setting [4]) were 8.4 µM and 0.21 µM, respectively.
Turning to `Cc1cccc(COc2cccc(N(Cc3cccc(OC(F)(F)C(F)F)c3)CC(O)C(F)(F)F)c2)c1` (centres unmarked) [Example 402], the figures for the IC50 at CETP [1] (setting [3]) and at CETP [2] (setting [4]) were 2.9 µM and 0.33 µM, respectively.
For the compound `OC(CN(Cc1cccc(OC(F)(F)C(F)F)c1)c1cccc(OCc2cccc(C(F)(F)F)c2F)c1)C(F)(F)F` (centres unmarked) [Example 400], the figures for the IC50 on CETP [1] (setting [3]) and on CETP [2] (setting [4]) were 6.3 µM and 0.21 µM, respectively.
Regarding `OC(CN(Cc1cccc(OC(F)(F)C(F)F)c1)c1cccc(OCc2cccc(C(F)(F)F)c2)c1)C(F)(F)F` (centres unmarked) [Example 379], the IC50 against CETP [1] (setting [5]) was 7.7 µM; on CETP [2] (setting [4]), 0.098 µM.
With `OC(CN(Cc1cccc(OC(F)(F)C(F)F)c1)c1cccc(Nc2ccc(F)cc2)c1)C(F)(F)F` (centres unmarked) [Example 293], the IC50 on CETP [1] (setting [3]) was 42 µM; at CETP [2] (setting [4]) it was 1 µM.
The corresponding values for `OC(CN(Cc1cccc(OC(F)(F)C(F)F)c1)c1cccc(F)c1)C(F)(F)F` (centres unmarked) [Example 43] are 110 µM and 4 µM.
For `OC(CN(Cc1cccc(OC(F)(F)C(F)F)c1)c1cccc(OCc2cccc(Br)c2)c1)C(F)(F)F` (centres unmarked) [Example 401], in that order: 4.2 µM and 0.18 µM.
The corresponding values for `Cc1ccc(CN(CC(O)C(F)(F)F)c2cccc(F)c2)cc1` (centres unmarked) [Example 33] are 500 µM and 15 µM.
Regarding `OC(CN(Cc1cccc(OC(F)(F)C(F)F)c1)c1cccc(OCc2ccc(F)cc2)c1)C(F)(F)F` (centres unmarked) [Example 391], the IC50 came to 25 µM on CETP [1] (setting [3]) and 0.56 µM on CETP [2] (setting [4]).
The corresponding values for `OC(CN(Cc1cccc(OC(F)(F)C(F)F)c1)c1ccc(-c2ccccc2)cc1)C(F)(F)F` (centres unmarked) [Example 87] are 60 µM and 4 µM.
The corresponding values for `OC(CN(Cc1cccc(C(F)(F)F)c1)c1ccccc1)C(F)(F)F` (centres unmarked) [Example 35] are more than 200 µM and 16 µM.
The corresponding values for `O=[N+]([O-])c1cc(Br)ccc1Oc1cccc(N(Cc2cccc(OC(F)(F)C(F)F)c2)CC(O)C(F)(F)F)c1` (centres unmarked) [Example 439] are 13 µM and 1 µM.
As for `OC(CN(Cc1cccc(OC(F)(F)C(F)F)c1)c1cccc(Oc2cc(Br)ccc2F)c1)C(F)(F)F` (centres unmarked) [Example 630, 3-[[3-(-5-bromo-2-fluorophenoxy)phenyl][[3-(1,1,2,2-tetrafluoro-ethoxy)phenyl]methyl]amino]-1,1,1-trifluoro-2-propanol], the IC50 is 1.8 µM on CETP [1] (setting [3]) and 0.05 µM at CETP [2] (setting [4]).
Turning to `OC(CN(Cc1cccc(OC(F)(F)C(F)F)c1)c1cccc(OC(F)(F)F)c1)C(F)(F)F` (centres unmarked) [Example 71], the IC50 at CETP [1] (setting [3]) is 36 µM; at CETP [2] (setting [4]), 1.2 µM.
In the case of `OC(CN(Cc1cccc(OC(F)(F)C(F)F)c1)c1cccc(OCc2cccc(I)c2)c1)C(F)(F)F` (centres unmarked) [Example 405], the figures for the IC50 at CETP [1] (setting [3]) and on CETP [2] (setting [4]) were 6.2 µM and 0.6 µM, respectively.
Turning to `OC(CN(Cc1ccc(OC(F)(F)F)cc1)c1cccc(Oc2ccccc2)c1)C(F)(F)F` (centres unmarked) [Example 63], the IC50 is 120 µM against CETP [1] (setting [5]) and 3.5 µM on CETP [2] (IC50, Inhibition of CETP activity in reconstituted buffer assay).
As for `OC(CN(Cc1cccc(OC(F)(F)C(F)F)c1)c1cccc(-c2ccc(F)c(Cl)c2)c1)C(F)(F)F` (centres unmarked) [Example 554], the IC50 on CETP [1] (setting [3]) amounted to 18 µM; on CETP [2] (setting [4]), 0.75 µM.
The corresponding values for `COc1ccc(Oc2ccc(CN(CC(O)C(F)(F)F)c3cccc(Oc4ccccc4)c3)cc2)cc1` (centres unmarked) [Example 168] are more than 100 µM and 2.5 µM.
Regarding `OC(CN(Cc1cccc(OC(F)(F)F)c1)c1ccc2c(c1)Cc1ccccc1-2)C(F)(F)F` (centres unmarked) [Example 201], the IC50 on CETP [1] (setting [3]) stood at 110 µM; at CETP [2] (setting [4]), 4 µM.
For `CCCCOc1ccc(Oc2cccc(N(Cc3cccc(OC(F)(F)C(F)F)c3)CC(O)C(F)(F)F)c2)cc1` (centres unmarked) [Example 251], in that order: 26 µM and 0.49 µM.
For `OC(CN(Cc1cccc(OC(F)(F)C(F)F)c1)c1cccc(Oc2ccc(Br)cc2)c1)C(F)(F)F` (centres unmarked) [Example 269], in that order: 22 µM and 0.59 µM.
Take `OC(CN(Cc1cccc(OC(F)(F)C(F)F)c1)c1cccc(Nc2cc(F)cc(F)c2)c1)C(F)(F)F` (centres unmarked) [Example 307]: the IC50 at CETP [1] (setting [3]) worked out at 81 µM; on CETP [2] (setting [4]), 2 µM.
